In patent publication US20250163054A1, “SUBSTITUTED BICYCLIC HETEROARYL COMPOUNDS USEFUL AS INHIBITORS OF TLR9” (Bristol-Myers Squibb Company, priority 2022, published 2025):

Tests used:
Assay type in all cases: cell-based
human TLR8 = biological target: T1, human TLR8 (Homo sapiens, UniProt Q9NR97); experiment: TLR7/8/9 Inhibition Reporter Assays (TLR8); conditions: HEK-Blue cells overexpressing human TLR8, SEAP reporter, stimulated with TLR8 ligand R848
T1 construct: host or cells: HEK-Blue cells (HEK293-derived reporter line)
T1 sequence (Q9NR97 27-1041): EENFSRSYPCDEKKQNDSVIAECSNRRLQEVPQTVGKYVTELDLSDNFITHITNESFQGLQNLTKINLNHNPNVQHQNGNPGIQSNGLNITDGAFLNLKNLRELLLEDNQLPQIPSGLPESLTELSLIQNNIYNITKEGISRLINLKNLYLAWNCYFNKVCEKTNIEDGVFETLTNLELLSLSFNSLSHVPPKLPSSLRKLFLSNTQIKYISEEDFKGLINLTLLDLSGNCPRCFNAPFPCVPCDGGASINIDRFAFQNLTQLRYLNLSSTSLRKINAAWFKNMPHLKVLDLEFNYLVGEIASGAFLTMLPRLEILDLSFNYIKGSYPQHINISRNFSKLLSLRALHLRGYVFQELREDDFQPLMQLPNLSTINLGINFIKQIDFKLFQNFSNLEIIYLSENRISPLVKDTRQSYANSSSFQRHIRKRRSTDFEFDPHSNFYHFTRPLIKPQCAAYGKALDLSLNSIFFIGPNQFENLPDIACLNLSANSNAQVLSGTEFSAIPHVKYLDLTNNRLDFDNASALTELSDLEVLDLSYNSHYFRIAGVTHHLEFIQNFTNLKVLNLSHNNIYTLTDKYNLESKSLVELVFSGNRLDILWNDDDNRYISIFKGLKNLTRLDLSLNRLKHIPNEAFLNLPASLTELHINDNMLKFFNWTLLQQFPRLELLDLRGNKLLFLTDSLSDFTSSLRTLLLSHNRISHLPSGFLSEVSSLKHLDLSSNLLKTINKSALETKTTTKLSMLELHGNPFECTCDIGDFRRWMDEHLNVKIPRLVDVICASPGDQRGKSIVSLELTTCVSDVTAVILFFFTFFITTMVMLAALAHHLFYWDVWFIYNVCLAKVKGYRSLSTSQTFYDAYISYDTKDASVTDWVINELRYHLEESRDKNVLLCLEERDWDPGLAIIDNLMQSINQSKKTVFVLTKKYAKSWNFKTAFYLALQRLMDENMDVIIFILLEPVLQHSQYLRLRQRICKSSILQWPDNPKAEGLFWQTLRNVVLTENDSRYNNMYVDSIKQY
Outline: (§1)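 HEK-Blue cells overexpressing human TLR7, TLR8 or TLR9 with NF-κB/AP-1-driven SEAP reporter, pre-treated 60 min with compound ([…]). Stimulated with […] (TLR7), […] (TLR8) or ODN2006 200 nM (TLR9), then 22 h at 37° C; SEAP measured, % inhibition relative to agonist-plus-DMSO and known-inhibitor wells.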

human TLR7 = biological target: T2, human TLR7 (Homo sapiens, UniProt Q9NYK1); experiment: TLR7/8/9 Inhibition Reporter Assays (TLR7); conditions: HEK-Blue cells overexpressing human TLR7, SEAP reporter, stimulated with TLR7 ligand gardiquimod
T2 construct: host or cells: HEK-Blue cells (HEK293-derived reporter line)
T2 sequence (Q9NYK1 27-1049): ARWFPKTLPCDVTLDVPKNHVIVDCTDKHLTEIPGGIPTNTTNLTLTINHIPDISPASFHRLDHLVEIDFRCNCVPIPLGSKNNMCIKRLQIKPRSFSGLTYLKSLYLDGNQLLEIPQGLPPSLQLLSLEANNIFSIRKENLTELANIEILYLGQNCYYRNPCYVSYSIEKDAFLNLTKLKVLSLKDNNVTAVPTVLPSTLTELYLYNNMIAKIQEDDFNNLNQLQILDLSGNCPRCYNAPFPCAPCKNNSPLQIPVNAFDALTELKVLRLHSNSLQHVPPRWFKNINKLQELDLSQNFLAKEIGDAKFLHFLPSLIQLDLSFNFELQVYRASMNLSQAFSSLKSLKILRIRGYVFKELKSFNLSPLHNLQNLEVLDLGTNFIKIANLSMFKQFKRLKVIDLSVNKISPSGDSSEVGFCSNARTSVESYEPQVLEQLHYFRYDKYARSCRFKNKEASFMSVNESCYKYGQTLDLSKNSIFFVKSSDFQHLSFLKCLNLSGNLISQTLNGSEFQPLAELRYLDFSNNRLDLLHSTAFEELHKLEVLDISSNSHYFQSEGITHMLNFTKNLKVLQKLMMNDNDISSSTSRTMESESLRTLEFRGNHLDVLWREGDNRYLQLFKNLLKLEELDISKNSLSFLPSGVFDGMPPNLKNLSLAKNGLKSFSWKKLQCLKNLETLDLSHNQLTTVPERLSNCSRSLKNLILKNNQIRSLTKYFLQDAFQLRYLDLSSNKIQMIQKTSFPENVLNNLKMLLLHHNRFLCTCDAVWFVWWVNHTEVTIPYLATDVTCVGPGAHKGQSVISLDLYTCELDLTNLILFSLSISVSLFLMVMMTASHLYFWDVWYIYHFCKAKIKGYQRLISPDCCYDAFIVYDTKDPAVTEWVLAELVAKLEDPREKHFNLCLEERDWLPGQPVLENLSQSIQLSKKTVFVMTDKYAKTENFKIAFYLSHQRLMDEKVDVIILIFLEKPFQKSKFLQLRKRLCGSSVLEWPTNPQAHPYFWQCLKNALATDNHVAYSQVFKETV
Outline: as §1

human TLR9 = biological target: T3, human TLR9 (Homo sapiens, UniProt Q9NR96); experiment: TLR7/8/9 Inhibition Reporter Assays (TLR9); conditions: HEK-Blue cells overexpressing human TLR9, SEAP reporter, stimulated with TLR9 ligand ODN2006
T3 construct: host or cells: HEK-Blue cells (HEK293-derived reporter line)
T3 sequence (Q9NR96 26-1032): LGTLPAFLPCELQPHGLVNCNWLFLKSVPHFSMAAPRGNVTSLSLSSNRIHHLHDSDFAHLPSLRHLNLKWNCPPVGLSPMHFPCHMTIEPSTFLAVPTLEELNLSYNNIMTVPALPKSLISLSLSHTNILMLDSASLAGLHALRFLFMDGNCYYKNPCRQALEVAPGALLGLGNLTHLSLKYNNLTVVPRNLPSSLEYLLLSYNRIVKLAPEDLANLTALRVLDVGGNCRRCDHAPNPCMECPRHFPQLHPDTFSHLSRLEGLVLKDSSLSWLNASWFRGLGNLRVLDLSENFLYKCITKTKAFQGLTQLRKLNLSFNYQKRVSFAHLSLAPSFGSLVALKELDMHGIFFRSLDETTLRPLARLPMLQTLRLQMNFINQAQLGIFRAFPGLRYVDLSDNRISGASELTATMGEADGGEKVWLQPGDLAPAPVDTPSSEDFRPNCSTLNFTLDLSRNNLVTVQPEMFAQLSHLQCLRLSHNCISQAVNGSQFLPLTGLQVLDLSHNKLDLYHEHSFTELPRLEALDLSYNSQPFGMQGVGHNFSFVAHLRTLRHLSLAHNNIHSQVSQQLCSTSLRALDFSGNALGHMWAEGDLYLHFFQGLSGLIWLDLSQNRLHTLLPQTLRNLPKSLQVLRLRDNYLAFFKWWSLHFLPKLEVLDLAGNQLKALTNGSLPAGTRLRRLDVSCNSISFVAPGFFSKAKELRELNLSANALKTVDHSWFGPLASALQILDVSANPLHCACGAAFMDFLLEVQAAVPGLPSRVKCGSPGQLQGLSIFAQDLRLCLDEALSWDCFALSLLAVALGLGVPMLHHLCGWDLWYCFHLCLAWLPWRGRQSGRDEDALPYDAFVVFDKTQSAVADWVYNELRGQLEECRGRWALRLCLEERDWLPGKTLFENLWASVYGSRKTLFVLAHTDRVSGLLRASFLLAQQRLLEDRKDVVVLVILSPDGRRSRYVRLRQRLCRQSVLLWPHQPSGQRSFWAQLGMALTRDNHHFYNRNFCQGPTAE
Outline: as §1

Structure (SMILES) | IC50 (human TLR8) | IC50 (human TLR7) | IC50 (human TLR9)
COc1ccc(-c2nc3c(C)nc(-c4ccc(N5CCC6(CC5)CN(C5CCC5)C6)cc4)cc3n2C)cc1OC [Example 80, 6-(4-(2-cyclobutyl-2,7-diazaspiro[3.5]nonan-7-yl)phenyl)-2-(3,4-dimethoxyphenyl)-1,4-dimethyl-1H-imidazo[4,5-c]pyridine] | 15000 nM | 590 nM | 61 nM
COc1ccc(-c2nc3c(C)nc(-c4ccc(N5CC6(C5)CN(C5COC5)C6)cc4)cc3n2C)cc1OC [Example 102, 2-(3,4-dimethoxyphenyl)-1,4-dimethyl-6-(4-(6-(oxetan-3-yl)-2,6-diazaspiro[3.3]heptan-2-yl)phenyl)-1H-imidazo[4,5-c]pyridine] | > 50000 nM | 9100 nM | 320 nM
Cc1nc(C2CCN(C3CCN(CC(C)(C)O)CC3)CC2)cc2c1nc(-c1ccc(S(C)(=O)=O)cc1)n2C [Example 40, 1-(4-(1,4-dimethyl-2-(4-(methylsulfonyl)phenyl)-1H-imidazo[4,5-c]pyridin-6-yl)-[1,4′-bipiperidin]-1′-yl)-2-methylpropan-2-ol] | > 50000 nM | 9100 nM | 120 nM
COc1cc(-c2nc3c(C)nc(-c4ccc(N5CCN(C(C)C)CC5)cc4)cc3n2C)cn2ncnc12 [Example 9, 6-(6-(4-(4-isopropylpiperazin-1-yl)phenyl)-1,4-dimethyl-1H-imidazo[4,5-c]pyridin-2-yl)-8-methoxy-[1,2,4]triazolo[1,5-a]pyridine] | 9100 nM | 470 nM | 220 nM
COc1ccc(-c2nc3c(C)nc(-c4ccc(N5CCN(C6CCC6)CC5)cc4)cc3n2C)cc1OC [Example 19, 6-(4-(4-cyclobutylpiperazin-1-yl)phenyl)-2-(3,4-dimethoxyphenyl)-1,4-dimethyl-1H-imidazo[4,5-c]pyridine] | > 50000 nM | 850 nM | 820 nM
Cc1nc(-c2ccc(N3CCC(N4CCCC4)CC3)cc2)c(F)c2c1nc(-c1ccc(S(C)(=O)=O)cc1)n2C [Example 44, 7-fluoro-1,4-dimethyl-2-(4-(methylsulfonyl)phenyl)-6-(4-(4-(pyrrolidin-1-yl)piperidin-1-yl)phenyl)-1H-imidazo[4,5-c]pyridine] | > 50000 nM | 7800 nM | 2500 nM
CC(C)CN1CC2(CCN(c3ccc(-c4cc5c(cn4)nc(-c4ccc(S(C)(=O)=O)cc4)n5C)cc3)C2)C1 [Example 99, 6-(4-(2-isobutyl-2,6-diazaspiro[3.4]octan-6-yl)phenyl)-1-methyl-2-(4-(methylsulfonyl)phenyl)-1H-imidazo[4,5-c]pyridine] | 900 nM | 3100 nM | 220 nM
Cc1nc(-c2ccc(N3C[C@H]4CN(CC(C)(C)O)C[C@H]4C3)cc2)cc2c1nc(-c1ccc(S(C)(=O)=O)cc1)n2C [Example 93, 1-((3aR,6aS)-5-(4-(1,4-dimethyl-2-(4-(methylsulfonyl)phenyl)-1H-imidazo[4,5-c]pyridin-6-yl)phenyl)hexahydropyrrolo[3,4-c]pyrrol-2(1H)-yl)-2-methylpropan-2-ol] | 2000 nM | 810 nM | 79 nM
CC(C)N1CC2(CCN(c3ccc(-c4cc5c(cn4)nc(-c4ccc(S(C)(=O)=O)cc4)n5C)cc3)C2)C1 [Example 64, 6-(4-(2-isopropyl-2,6-diazaspiro[3.4]octan-6-yl)phenyl)-1-methyl-2-(4-(methylsulfonyl)phenyl)-1H-imidazo[4,5-c]pyridine] | 790 nM | 2800 nM | 220 nM
Cc1nc(-c2ccc(N3CC4(CCN(CC(C)(C)O)CC4)C3)cc2)cc2c1nc(-c1ccc(S(C)(=O)=O)cc1)n2C [Example 100, 1-(2-(4-(1,4-dimethyl-2-(4-(methylsulfonyl)phenyl)-1H-imidazo[4,5-c]pyridin-6-yl)phenyl)-2,7-diazaspiro[3.5]nonan-7-yl)-2-methylpropan-2-ol] | 2200 nM | 3300 nM | 650 nM
